Among the data in patent US9796719B2, “Compounds and pharmaceutical compositions thereof for the treatment of inflammatory disorders” (GALAPAGOS NV, priority 2013, dated 2017) are IC50 values, retold here.

The structures appear in SMILES notation. Where only a bound is given, the exact number is not on record here.

One may read the IC50 as the midpoint of a concentration-inhibition curve.

The target in this experiment is hENPP2 (UniProtKB/SwissProt Sequence ref Q13822) (Homo sapiens (Human), UniProt Q13822). The experiment is described as follows: LPC hENPP2 assay (choline release, LPC as substrate). Format: biochemical. As for the experimental part:
The principle of the assay consists in quantifying the released choline with an enzymatic method using choline oxidase and peroxidase. Choline oxydation by choline oxydase releases betaine and peroxide. The latter is quantified in presence of HRP that converts the peroxide detection agent TOOS and 4-aminoantipyrine into quinoneimine dye. The appearance of quinoneimine dye is measured spectrophotometrically at 555 nm and is proportional to the amount of choline released by ENPP2. Inhibition of ENPP2 will result in a decrease of the signal.
The reaction is terminated and choline quantified by the addition of a 25 μL of a mixture containing 0.6 U/mL of choline oxidase, 0.6 U/mL of peroxydase, 1.8 mM TOOS, 1.2 mM amino-antipyrine, 20 mM EGTA (stop-developer solution) diluted in the buffer described above. […] is read on the Envision after an incubation of 30 min at room temperature (Excitation 555 nm, excitation light=70%).
For the molecule `CCc1nc2ccc(N3CCC(CNS(C)(=O)=O)CC3)nn2c1N(C)c1nc(-c2ccc(F)cc2)cs1` [Cpd 105, N-((1-(2-ethyl-3-((4-(4-fluorophenyl)thiazol-2-yl)(methyl)amino)imidazo[1,2-b]pyridazin-6-yl)piperidin-4-yl)methyl) methanesulfonamide], the concentration for half-maximal inhibition (IC50) is more than 1000 nM. Next, `CCc1nc2ccc(N3CCC(NC(=O)C4CCNCC4)CC3)nn2c1N(C)c1nc(-c2ccc(F)cc2)cs1` [Cpd 88, N-(1-(2-ethyl-3-((4-(4-fluorophenyl)thiazol-2-yl)(methyl)amino)imidazo[1,2-b]pyridazin-6-yl)piperidin-4-yl)piperidine-4-carboxamide]: 500 to 1000 nM; `CCc1nc2ccc(N3CCN4C(=O)COC[C@@H]4C3)nn2c1N(C)c1nc(-c2ccc(F)cc2)cs1` [Compound 66, (S)-8-(2-ethyl-3-((4-(4-fluorophenyl)thiazol-2-yl)(methyl)amino)imidazo[1,2-b]pyridazin-6-yl)hexahydropyrazino[2,1-c][1,4]oxazin-4(1H)-one]: more than 1000 nM. Molecule `CCc1nc2cnc(N3CCNCC3)cn2c1N(C)c1nc(-c2ccc(F)cc2)c(C#N)s1` [Compound 1, 2-((2-ethyl-6-(piperazin-1-yl)imidazo[1,2-a]pyrazin-3-yl)(methyl)amino)-4-(4-fluorophenyl)thiazole-5-carbonitrile] returned an IC50 of more than 1000 nM. Next, `CCc1nc2ccc(N3CCCC(N4CCOCC4)C3)nn2c1N(C)c1nc(-c2ccc(F)cc2)cs1` (stereo not drawn) [Cpd 110, N-(2-ethyl-6-(3-morpholino-piperidin-1-yl)imidazo[1,2-b]pyridazin-3-yl)-4-(4-fluorophenyl)-N-methylthiazol-2-amine]: more than 1000 nM; `CCc1nc2ccc(N3CCN(CC(=O)N4CCC4)CC3)nn2c1N(C)c1nc(-c2ccc(F)cc2)cs1` [Cpd 36, 1-(azetidin-1-yl)-2-(4-(2-ethyl-3-((4-(4-fluorophenyl)thiazol-2-yl)(methyl)amino)imidazo[1,2-b]pyridazin-6-yl)piperazin-1-yl)ethanone]: 100 to 500 nM. The value for `CCc1nc2ccc(N3CCCC4(CN(C)C(=O)O4)C3)nn2c1N(C)c1nc(-c2ccc(F)cc2)c(C#N)s1` (stereo not drawn) [Cpd 163, 2-((2-ethyl-6-(3-methyl-2-oxo-1-oxa-3,7-diazaspiro[4.5]decan-7-yl)imidazo [1,2-b]pyridazin-3-yl)(methyl)amino)-4-(4-fluorophenyl) thiazole-5-carbonitrile] was more than 1000 nM; that for `CCc1nc2ccc(N3CCC4(CCOCC4)C3)nn2c1N(C)c1nc(-c2ccc(F)cc2)c(CO)s1` [Cpd 186, (2-((2-ethyl-6-(8-oxa-2-azaspiro[4.5]decan-2-yl)[1,2-b]pyridazin-3-yl)(methyl)amino)-4-(4-fluorophenyl)thiazol-5-yl)methanol] was 100 to 500 nM. The value for `CCc1nc2ccc(N3CC[C@H](NCC(=O)N4CC(O)C4)C3)nn2c1N(C)c1nc(-c2ccc(F)cc2)c(C#N)s1` [Cpd 174, (S)-2-((2-ethyl-6-(3-(2-(3-hydroxyazetidin-1-yl)-2-oxoethylamino)pyrrolidin-1-yl)imidazo[1,2-b]pyridazin-3-yl)(methyl)amino)-4-(4-fluorophenyl) thiazole-5-carbonitrile] was 0.01 to 100 nM. With `CCc1nc2ccc(N3CCC(CNC(=O)OC(C)(C)C)CC3)nn2c1N(C)c1nc(-c2ccc(F)cc2)cs1` [Cpd 103, [1-(2-Ethyl-3-{[4-(4-fluoro-phenyl)-thiazol-2-yl]-methyl-amino}-imidazo[1,2-b]pyridazin-6-yl)-piperidin-4-ylmethyl]-carbamic acid tert-butyl ester], the IC50 was more than 1000 nM. As to `CCc1nc2ccc(N3CCC(N(C)C)CC3)nn2c1N(C)c1nc(-c2ccc(F)cc2)cs1` [Cpd 80, N-(6-(4-(dimethylamino)piperidin-1-yl)-2-ethylimidazo[1,2-b]pyridazin-3-yl)-4-(4-fluorophenyl)-N-methylthiazol-2-amine], the IC50 is more than 1000 nM. Next, `CCc1nc2ccc(C3=CCN(S(C)(=O)=O)CC3)nn2c1N(C)c1nc(-c2ccc(F)cc2C#N)cs1` [Cpd 204, 2-(2-((2-ethyl-6-(1-(methylsulfonyl)-1,2,3,6-tetrahydropyridin-4-yl)imidazo[1,2-b]pyridazin-3-yl)(methyl)amino)thiazol-4-yl)-5-fluorobenzonitrile]: 100 to 500 nM.

Consider `CCc1nc2ccc(N3CC[C@H](C#N)C3)nn2c1N(C)c1nc(-c2ccc(F)cc2)cs1` [Cpd 128, (S)-1-(2-ethyl-3-((4-(4-fluorophenyl)thiazol-2-yl)(methyl)amino)imidazo[1,2-b]pyridazin-6-yl)pyrrolidine-3-carbonitrile], for which the IC50 is more than 1000 nM.

`CCc1nc2ccc(N3C[C@H](O)[C@@H](N4CCOCC4)C3)nn2c1N(C)c1nc(-c2ccc(F)cc2)c(C#N)s1` [Cpd 184]: the 50% inhibitory concentration (IC50) lay in the range of 0.01 to 100 nM. The value for `CCc1nc2ccc(N3CCC(N4CCN(C(C)=O)CC4)C3)nn2c1N(C)c1nc(-c2ccc(F)cc2)c(C#N)s1` (stereo not drawn) [Cpd 180, 2-((6-(3-(4-acetoylpiperazin-1-yl)pyrrolidin-1-yl)-2-ethylimidazo[1,2-b]pyridazin-3-yl)(methyl)amino)-4-(4-fluorophenyl) thiazole-5-carbonitrile] was 0.01 to 100 nM. Next, `CCc1nc2ccc(N3CCC(N4CCNC(=O)C4)C3)nn2c1N(C)c1nc(-c2ccc(F)cc2)cs1` (stereo not drawn) [Cpd 146, 4-(1-(2-ethyl-3-((4-(4-fluorophenyl)thiazol-2-yl)(methyl)amino)imidazo[1,2-b]pyridazin-6-yl)pyrrolidin-3-yl)piperazin-2-one]: 500 to 1000 nM; `CCc1nc2ccc(N3CCC4(CCN(C(=O)OC(C)(C)C)C4)C3)nn2c1N(C)c1nc(-c2ccc(F)cc2)c(C#N)s1` (stereo not drawn) [Cpd 165, tert-butyl 7-(3-((5-cyano-4-(4-fluorophenyl)thiazol-2-yl)(methyl)amino)-2-ethylimidazo[1,2-b]pyridazin-6-yl)-2,7-diazaspiro[4.4] nonane-2-carboxylate]: 100 to 500 nM. The value for `CCc1nc2ccc(N3CCC(N4CCOCC4)C3)nn2c1N(C)c1nc(-c2ccc(F)cc2)c(CO)s1` (stereo not drawn) [Cpd 148, (2-((2-ethyl-6-(3-morpholino-pyrrolidin-1-yl)imidazo[1,2-b]pyridazin-3-yl)(methyl)amino)-4-(4-fluorophenyl)thiazol-5-yl) methanol] was 500 to 1000 nM; that for `CCc1nc2ccc(N3C[C@H]4C[C@H]3CN4S(C)(=O)=O)nn2c1N(C)c1nc(-c2ccc(F)cc2)cs1` [Cpd 76, N-(2-ethyl-6-((1S,4R)-5-(methylsulfonyl)-2,5-diazabicyclo[2.2.1]heptan-2-yl)imidazo[1,2-b]pyridazin-3-yl)-4-(4-fluorophenyl)-N-methylthiazol-2-amine] was more than 1000 nM. Molecule `CCc1nc2ccc(N3CCN(C4COC4)CC3)nn2c1N(C)c1nc(-c2ccc(F)cc2)cs1` [Compound 38, N-(2-ethyl-6-(4-(oxetan-3-yl)piperazin-1-yl)imidazo[1,2-b]pyridazin-3-yl)-4-(4-fluorophenyl)-N-methylthiazol-2-amine] had an IC50 of more than 1000 nM. Next, `CCc1nc2ccc(N3CCN(CCNC(=O)OC(C)(C)C)CC3)nn2c1N(C)c1nc(-c2ccc(F)cc2)cs1` [Cpd 56, tert-butyl 2-(4-(2-ethyl-3-((4-(4-fluorophenyl)thiazol-2-yl)(methyl)amino)imidazo[1,2-b]pyridazin-6-yl)piperazin-1-yl)ethylcarbamate]: more than 1000 nM; `CCc1nc2ccc(C3CCN(CC(=O)N(C)C)CC3)nn2c1N(C)c1nc(-c2ccc(F)cc2C#N)cs1` [Cpd 208, 2-(4-(3-((4-(2-cyano-4-fluorophenyl)thiazol-2-yl)(methyl)amino)-2-ethylimidazo[1,2-b]pyridazin-6-yl)piperidin-1-yl)-N,N-dimethylacetamide]: 100 to 500 nM. The value for `CCc1nc2ccc(N3CCN(S(C)(=O)=O)[C@@H](CO)C3)nn2c1N(C)c1nc(-c2ccc(F)cc2)cs1` [Cpd 69, (R)-(4-(2-ethyl-3-((4-(4-fluorophenyl)thiazol-2-yl)(methyl)amino)imidazo[1,2-b]pyridazin-6-yl)-1-(methylsulfonyl)piperazin-2-yl)methanol] was more than 1000 nM. The value for `CCc1nc2cnc(N3CCN(CC(=O)N4CCC4)CC3)cn2c1N(C)c1nc(-c2ccc(F)cc2)cs1` [Cpd 13, 1-(azetidin-1-yl)-2-(4-(2-ethyl-3-((4-(4-fluorophenyl)thiazol-2-yl)(methyl)amino)imidazo[1,2-a]pyrazin-6-yl)piperazin-1-yl)ethanone] was more than 1000 nM; that for `CCc1nc2ccc(N3CCN(C(=O)OC(C)(C)C)[C@H](CO)C3)nn2c1N(C)c1nc(-c2ccc(F)cc2)cs1` [Cpd 59, (S)-tert-butyl 4-(2-ethyl-3-((4-(4-fluorophenyl)thiazol-2-yl)(methyl)amino)imidazo[1,2-b]pyridazin-6-yl)-2-(hydroxymethyl) piperazine-1-carboxylate] was more than 1000 nM; that for `CCc1nc2ccc(N3CCC(NC(=O)C4(C)COC4)CC3)nn2c1N(C)c1nc(-c2ccc(F)cc2)cs1` [Cpd 86, N-(1-(2-ethyl-3-((4-(4-fluorophenyl)thiazol-2-yl)(methyl)amino)imidazo[1,2-b]pyridazin-6-yl)piperidin-4-yl)-3-methyloxetane-3-carboxamide] was more than 1000 nM. For the molecule `CCc1nc2ccc(N3CCC4(CCCCC4)CC3)nn2c1N(C)c1nc(-c2ccc(F)cc2)cs1` [Cpd 77, N-(2-ethyl-6-(3-azaspiro[5.5]undecan-3-yl)imidazo[1,2-b]pyridazin-3-yl)-4-(4-fluorophenyl)-N-methylthiazol-2-amine], the IC50 was more than 1000 nM.
